From PubChem BioAssay (NCI)
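How tested: cells in 96-well plates exposed to compound for 48 hours at five concentrations. GI50 marks 50% less growth. The concentration for full growth arrest is given as TGI.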

Assays:
Experiment in all cases: inhibition of tumour cell growth, NCI panel, 48 h
[1] = system: 786-0 renal
[2] = system: A498 renal
[3] = system: A549 NSCLC
[4] = system: ACHN renal
[5] = system: BT-549 breast
[6] = system: CAKI-1 renal
[7] = system: CCRF-CEM leukemia
[8] = system: COLO 205 colon
[9] = system: DU-145 prostate
[10] = system: EKVX NSCLC
[11] = system: HCC-2998 colon
[12] = system: HCT-116 colon
[13] = system: HCT-15 colon
[14] = system: HL-60(TB) leukemia
[15] = system: HOP-62 NSCLC
[16] = system: HOP-92 NSCLC
[17] = system: HS 578T breast
[18] = system: HT29 colon
[19] = system: IGROV1 ovarian
[20] = system: K-562 leukemia
[21] = system: KM12 colon
[22] = system: LOX IMVI melanoma
[23] = system: M14 melanoma
[24] = system: MALME-3M melanoma
[25] = system: MCF7 breast
[26] = system: MDA-MB-231 breast
[27] = system: MDA-MB-435
[28] = system: MOLT-4 leukemia
[29] = system: NCI-H226 lung
[30] = system: NCI-H23 lung
[31] = system: NCI-H460 lung
[32] = system: NCI-H522 lung
[33] = system: NCI/ADR-RES ovarian
[34] = system: OVCAR-3 ovarian
[35] = system: OVCAR-4 ovarian
[36] = system: OVCAR-5 ovarian
[37] = system: OVCAR-8 ovarian
[38] = system: PC-3 prostate
[39] = system: RPMI-8226 leukemia
[40] = system: RXF 393 renal
[41] = system: SF-268 CNS
[42] = system: SF-295 CNS
[43] = system: SF-539 CNS
[44] = system: SK-MEL-2 melanoma
[45] = system: SK-MEL-28 melanoma
[46] = system: SK-MEL-5 melanoma
[47] = system: SK-OV-3 ovarian
[48] = system: SN12C renal
[49] = system: SNB-19 CNS
[50] = system: SNB-75 CNS
[51] = system: SR leukemia
[52] = system: SW-620 colon
[53] = system: T-47D breast
[54] = system: TK-10 renal
[55] = system: U251 CNS
[56] = system: UACC-257 melanoma
[57] = system: UACC-62 melanoma
[58] = system: UO-31 renal

## Cc1ccc(-c2cc3nc(-c4ccccc4)nc(C(Cl)Cl)n3n2)cc1
[1]
  GI50: 1.06 µM
  TGI: 2.37 µM
[2]
  GI50: 0.672 µM
  TGI: 1.39 µM
[3]
  GI50: 0.927 µM
  TGI: 2.63 µM
[4]
  GI50: 0.737 µM
  TGI: 1.41 µM
[5]
  GI50: 15.2 µM
  TGI: > 50 µM
[6]
  GI50: 0.668 µM
  TGI: 1.33 µM
[7]
  GI50: > 50 µM
  TGI: > 50 µM
[8]
  GI50: 1.06 µM
  TGI: 2.34 µM
[9]
  GI50: 0.573 µM
  TGI: 1.2 µM
[10]
  GI50: 0.752 µM
  TGI: 1.51 µM
[11]
  GI50: 0.891 µM
  TGI: 1.69 µM
[12]
  GI50: 0.689 µM
  TGI: 1.61 µM
[13]
  GI50: 0.958 µM
  TGI: 3.13 µM
[14]
  GI50: 1.39 µM
  TGI: 4.06 µM
[15]
  GI50: 0.666 µM
  TGI: 2.11 µM
[16]
  GI50: 0.725 µM
  TGI: 1.62 µM
[17]
  GI50: 0.932 µM
  TGI: 2.31 µM
[18]
  GI50: 1.2 µM
  TGI: 5.32 µM
[19]
  GI50: 1.43 µM
  TGI: > 50 µM
[20]
  GI50: 1.76 µM
  TGI: > 50 µM
[21]
  GI50: 0.701 µM
  TGI: 1.96 µM
[22]
  GI50: > 50 µM
  TGI: > 50 µM
[23]
  GI50: > 50 µM
  TGI: > 50 µM
[24]
  GI50: 36.1 µM
  TGI: > 50 µM
[25]
  GI50: 0.845 µM
  TGI: 4.55 µM
[26]
  GI50: 0.628 µM
  TGI: 1.59 µM
[27]
  GI50: 1.14 µM
  TGI: 2.71 µM
[28]
  GI50: > 50 µM
  TGI: > 50 µM
[29]
  GI50: > 50 µM
  TGI: > 50 µM
[30]
  GI50: 1.95 µM
  TGI: > 50 µM
[31]
  GI50: 0.45 µM
  TGI: 1.42 µM
[32]
  GI50: > 50 µM
  TGI: > 50 µM
[33]
  GI50: 0.789 µM
  TGI: 2.42 µM
[34]
  GI50: 0.737 µM
  TGI: 1.47 µM
[35]
  GI50: 0.671 µM
  TGI: 1.73 µM
[36]
  GI50: 1.19 µM
  TGI: 3.31 µM
[37]
  GI50: 1.16 µM
  TGI: 4.74 µM
[38]
  GI50: 0.781 µM
  TGI: 2.05 µM
[39]
  GI50: 0.802 µM
  TGI: 3.45 µM
[40]
  GI50: 0.845 µM
  TGI: 1.88 µM
[41]
  GI50: 1.11 µM
  TGI: 3.53 µM
[42]
  GI50: 0.955 µM
  TGI: 1.95 µM
[43]
  GI50: 0.911 µM
  TGI: 2.19 µM
[44]
  GI50: 2.51 µM
  TGI: 19.7 µM
[45]
  GI50: 1.54 µM
  TGI: 5.32 µM
[46]
  GI50: > 50 µM
  TGI: > 50 µM
[47]
  GI50: 1.52 µM
  TGI: 18.6 µM
[48]
  GI50: 2.92 µM
  TGI: > 50 µM
[49]
  GI50: 0.759 µM
  TGI: 1.73 µM
[50]
  GI50: 0.295 µM
  TGI: 1.04 µM
[51]
  GI50: 3.73 µM
  TGI: > 50 µM
[52]
  GI50: 0.851 µM
  TGI: 2.29 µM
[53]
  GI50: 0.718 µM
  TGI: 2.3 µM
[54]
  GI50: 0.944 µM
  TGI: 1.8 µM
[55]
  GI50: 0.419 µM
  TGI: 1.6 µM
[56]
  GI50: 1.53 µM
  TGI: 6.68 µM
[57]
  GI50: 0.933 µM
  TGI: 2.1 µM
[58]
  GI50: 0.719 µM
  TGI: 1.41 µM

## CN(C)Cc1cc(C(=O)/C=C/c2ccc(/C=C/C(=O)c3cc(CN(C)C)c(O)c(CN(C)C)c3)cc2)cc(CN(C)C)c1O
[1]
  TGI: 58.1 µM
[2]
  TGI: > 100 µM
[3]
  TGI: > 100 µM
[4]
  TGI: > 100 µM
[5]
  TGI: 60.2 µM
[6]
  TGI: > 100 µM
[7]
  TGI: > 100 µM
[8]
  TGI: 28.2 µM
[9]
  TGI: > 100 µM
[10]
  TGI: > 100 µM
[11]
  TGI: 33.4 µM
[12]
  TGI: 34 µM
[13]
  TGI: > 100 µM
[14]
  TGI: 98 µM
[15]
  TGI: > 100 µM
[16]
  TGI: 56.4 µM
[17]
  TGI: > 100 µM
[18]
  TGI: 37.7 µM
[19]
  TGI: > 100 µM
[20]
  TGI: > 100 µM
[21]
  TGI: 56.3 µM
[22]
  TGI: 26.5 µM
[23]
  TGI: 46.8 µM
[24]
  TGI: > 100 µM
[25]
  TGI: > 100 µM
[26]
  TGI: 41.1 µM
[27]
  TGI: 79.7 µM
[28]
  TGI: 68.6 µM
[30]
  TGI: 55.7 µM
[32]
  TGI: 40.1 µM
[33]
  TGI: > 100 µM
[34]
  TGI: > 100 µM
[35]
  TGI: > 100 µM
[36]
  TGI: 59.8 µM
[37]
  TGI: > 100 µM
[38]
  TGI: 49.6 µM
[39]
  TGI: 65.5 µM
[40]
  TGI: > 100 µM
[41]
  TGI: > 100 µM
[42]
  TGI: > 100 µM
[43]
  TGI: 78.8 µM
[44]
  TGI: > 100 µM
[45]
  TGI: > 100 µM
[46]
  TGI: > 100 µM
[48]
  TGI: 76 µM
[49]
  TGI: > 100 µM
[50]
  TGI: > 100 µM
[51]
  TGI: > 100 µM
[52]
  TGI: 54.7 µM
[53]
  TGI: > 100 µM
[54]
  TGI: > 100 µM
[55]
  TGI: 47 µM
[56]
  TGI: > 100 µM
[57]
  TGI: 94.3 µM
[58]
  TGI: > 100 µM
